Reference: ChEMBL document CHEMBL1201862, “PubChem BioAssay data set” (2004)
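In this assay, cells in 96-well plates receive the compound at five concentrations for 48 hours. Endpoints are linearly interpolated between the surrounding concentrations. GI50 = concentration required for 50% inhibition of growth.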 Calls of active or inactive are those of the source. Rule as the data show it: active = GI50 up to about 1.1 µM and inactive = higher.

How the values were obtained:
Test in all cases: growth of human tumour cells (NCI), 48 h
OVCAR-4 = tested on: OVCAR-4
A549 = tested on: A549
BT-549 = tested on: BT-549
MDA-MB-231 = tested on: MDA-MB-231
SK-MEL-5 = tested on: SK-MEL-5
HCT-116 = tested on: HCT-116
SR = tested on: SR
SK-MEL-2 = tested on: SK-MEL-2
PC-3 = tested on: PC-3
CAKI-1 = tested on: CAKI-1
EKVX = tested on: EKVX
MOLT-4 = tested on: MOLT-4
NCI/ADR-RES = tested on: NCI/ADR-RES
NCI-H226 = tested on: NCI-H226
RPMI-8226 = tested on: RPMI-8226
SK-MEL-28 = tested on: SK-MEL-28
MDA-MB-435 = tested on: MDA-MB-435
K562 = tested on: K562
TK-10 = tested on: TK-10
CCRF-CEM = tested on: CCRF-CEM
DU-145 = tested on: DU-145
COLO 205 = tested on: COLO 205
U-251 = tested on: U-251
LOX IMVI = tested on: LOX IMVI
IGROV-1 = tested on: IGROV-1
SF-295 = tested on: SF-295
786-0 = tested on: 786-0
NCI-H460 = tested on: NCI-H460
HOP-62 = tested on: HOP-62
OVCAR-8 = tested on: OVCAR-8
SF-268 = tested on: SF-268
HL-60 = tested on: HL-60
HOP-92 = tested on: HOP-92
SNB-75 = tested on: SNB-75
MCF7 = tested on: MCF7
SNB-19 = tested on: SNB-19
SN12C = tested on: SN12C
SF-539 = tested on: SF-539
NCI-H23 = tested on: NCI-H23
UACC-257 = tested on: UACC-257
OVCAR-5 = tested on: OVCAR-5
M14 = tested on: M14
KM12 = tested on: KM12
SW-620 = tested on: SW-620
ACHN = tested on: ACHN
HCT-15 = tested on: HCT-15
HT-29 = tested on: HT-29
Malme-3M = tested on: Malme-3M
NCI-H522 = tested on: NCI-H522
RXF 393 = tested on: RXF 393
UACC-62 = tested on: UACC-62
T47D = tested on: T47D
SK-OV-3 = tested on: SK-OV-3

Measured: GI50

C=CCCC1(O)C(O)C(CO)O[C@H](O[C@@]2(CO)OC(CO)C(O)C2O)C1O (some centres not stated)
> 100 µM: HCT-15
inactive: OVCAR-4 > 100 µM | A549 > 100 µM | BT-549 > 100 µM | MDA-MB-231 > 100 µM | SK-MEL-5 > 100 µM | HCT-116 > 100 µM | SR > 100 µM | SK-MEL-2 > 10 µM | PC-3 > 100 µM | CAKI-1 > 100 µM | EKVX > 100 µM | MOLT-4 > 100 µM | NCI/ADR-RES > 100 µM | NCI-H226 > 100 µM | RPMI-8226 > 100 µM | SK-MEL-28 > 100 µM | MDA-MB-435 > 100 µM | K562 > 100 µM | TK-10 > 100 µM | CCRF-CEM > 100 µM | DU-145 > 100 µM | COLO 205 > 100 µM | U-251 > 100 µM | LOX IMVI > 100 µM | IGROV-1 > 100 µM | SF-295 > 100 µM | 786-0 > 100 µM | NCI-H460 > 100 µM | HOP-62 > 100 µM | OVCAR-8 > 100 µM | SF-268 > 100 µM | HL-60 > 100 µM | HOP-92 > 100 µM | SNB-75 > 100 µM | MCF7 > 100 µM | SNB-19 > 100 µM | SN12C > 100 µM | SF-539 > 100 µM | NCI-H23 > 100 µM | UACC-257 > 100 µM | OVCAR-5 > 100 µM | M14 > 100 µM | KM12 > 100 µM | SW-620 > 100 µM | ACHN > 100 µM | HT-29 > 100 µM | Malme-3M > 100 µM | NCI-H522 > 100 µM

O=C1c2ccccc2-c2nnc(-c3ccccc3)cc21
inactive: OVCAR-4 > 10 µM | A549 > 10 µM | SK-MEL-5 > 10 µM | SR 3.83 µM | SK-MEL-2 > 10 µM | CAKI-1 > 10 µM | MOLT-4 3.01 µM | NCI/ADR-RES > 10 µM | RPMI-8226 > 10 µM | SK-MEL-28 > 10 µM | MDA-MB-435 > 10 µM | K562 3.61 µM | CCRF-CEM 3.25 µM | COLO 205 > 10 µM | U-251 > 10 µM | IGROV-1 > 10 µM | 786-0 > 10 µM | RXF 393 > 10 µM | NCI-H460 > 10 µM | UACC-62 > 10 µM | HOP-62 > 10 µM | SF-268 > 10 µM | HL-60 5.05 µM | SNB-75 > 10 µM | MCF7 3.37 µM | NCI-H23 > 10 µM | OVCAR-5 > 10 µM | M14 > 10 µM | SW-620 7.6 µM | ACHN > 10 µM | T47D 4.48 µM | Malme-3M > 10 µM | SK-OV-3 > 10 µM
